Values of other authors as cited in patent publication US20100028296A1, “Use of cytokine-derived peptides in treatment of pain and neurodegenerative disease” (priority 2005, published 2010).
Where no end group is shown, it is not given here.

What was measured:
[1] = tested on: immunomodulatory functions known for human IL-10; details: at generally different dosage levels
[2] = tested on: dynorphin-induced, IL-1β-mediated mechanical allodynia; details: intrathecal; administered 30 minutes or 6 hours after induction of allodynia
[3] = tested on: excitotoxic spinal cord injury; details: given 30 minutes following injury
[4] = native dimer, approximately 37 kDa
[5] = tested on: chronic constriction injury model of neuropathic pain; details: in vivo

## AYMTMKIRN [IT, C-terminal nonapeptide from human IL-10 protein]
[1]
  functional activities compared with intact IL-10: shares some, but not all, of the functional activities of intact IL-10

## IL-10: anti-inflammatory cytokine, dimer of approximately 37 kDa in its native state
[2]
  onset of mechanical allodynia: blocks the onset
[3]
  pathological pain behaviors: decreased pathological pain behaviors
[4]
  crossing of the intact blood brain barrier: does not cross the intact blood brain barrier in appreciable amounts

## O=C1CCC(N2C(=O)c3ccccc3C2=O)C(=O)N1 (stereo not drawn) [thalidomide]
[5]
  mechanical allodynia: reduces
  thermal hyperalgesia: reduces
